The text below walks through data of patent publication US9981964B2 (Agency for Science, Technology and Research, priority 2013, dated 2018).

This experiment has as its system HEK293-STF3A cells. The experiment is described as follows: STF3A assay (STF luciferase reporter in Wnt3A-expressing HEK293 cells). The following applies: Homo sapiens, 24 h, 1 day of treatment. Type of experiment: cell-based. The method, boiled down:
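HEK293 cells carrying the STF reporter and expressing Wnt3A, seeded 2×10^4 per well overnight, then treated 1 day with compound at final 50 μM to 1.5 nM. Luciferase activity read by luminescence after Steady-Glo reagent, 10 min at room temperature.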
For orientation: In a reporter assay the amount or activity of a reporter protein is the signal.

For orientation: IC50 means the point on the concentration scale where inhibition reaches its midpoint. Low values mean inhibition by little substance, high ones a need for much substance. Take `CC(C(=O)Nc1cnc(-c2cccnc2)cn1)N1CCCC2=C1C(=O)N(C)C2=O` (stereo not drawn) [Compound 23, 2-(6-methyl-5,7-dioxo-2,3,4,5,6,7-hexahydro-1H-pyrrolo[3,4-b]pyridin-1-yl)-N-(5-(pyridin-3-yl)pyrazin-2-yl)propanamide]: the IC50 was < 100 nM. In the case of `O=C(CN1CCCC2=C1C(=O)N(C1CC1)C2=O)Nc1cc(F)c(-c2cccnc2)cn1` [Compound 151, 2-(6-cyclopropyl-5,7-dioxo-2,3,4,5,6,7-hexahydro-1H-pyrrolo[3,4-b]pyridin-1-yl)-N-(4-fluoro-3,3′-bipyridin-6-yl)acetamide], the IC50 was < 100 nM. Under `Cc1ccc(-c2ccc(NC(=O)CN3CCCC4=C3C(=O)N(C)C4=O)cn2)cn1` [Compound 24, 2-(6-methyl-5,7-dioxo-2,3,4,5,6,7-hexahydro-1H-pyrrolo[3,4-b]pyridin-1-yl)-N-(6′-methyl-[2,3′-bipyridin]-5-yl)acetamide] stands < 100 nM. In the case of `CN1C(=O)C2=C(C1=O)N(CC(=O)Nc1cnc(-c3ccncc3)cn1)CCC2` [Compound 22, 2-(6-methyl-5,7-dioxo-2,3,4,5,6,7-hexahydro-1H-pyrrolo[3,4-b]pyridin-1-yl)-N-(5-(pyridin-4-yl)pyrazin-2-yl)acetamide], the IC50 is > 10000 nM. Regarding `Cc1cc(-c2cccnc2)cnc1NC(=O)CN1CCCC2=C1C(=O)N(C)C2=O` [Compound 113, 2-(6-methyl-5,7-dioxo-2,3,4,5,6,7-hexahydro-1H-pyrrolo[3,4-b]pyridin-1-yl)-N-(5-methyl-[3,3′-bipyridin]-6-yl)acetamide], the IC50 was > 10000 nM. As for `O=C(CN1CCCC2=C1C(=O)N(C1CC1)C2=O)Nc1ccc(-c2ccc(C(F)(F)F)cc2)nn1` [Compound 51, 2-(6-cyclopropyl-5,7-dioxo-2,3,4,5,6,7-hexahydro-1H-pyrrolo[3,4-b]pyridin-1-yl)-N-(6-(4-(trifluoromethyl)phenyl)pyridazin-3-yl)acetamide], the IC50 is < 1000 nM. As for `O=C(CN1CCCC2=C1C(=O)N(C1CC1)C2=O)Nc1ccc(-c2cncc(C(F)F)c2)nn1` [Compound 61], the IC50 is < 100 nM.

For `Cc1ncccc1-c1ccc(NC(=O)CN2CCCC3=C2C(=O)N(C)C3=O)nn1` [Compound 134, 2-(6-methyl-5,7-dioxo-2,3,4,5,6,7-hexahydro-1H-pyrrolo[3,4-b]pyridin-1-yl)-N-(6-(2-methylpyridin-3-yl)pyridazin-3-yl)acetamide], the IC50 is < 5000 nM. To `CN1C(=O)c2c(n(CC(=O)Nc3ccc(-c4cccnc4)cn3)ccc2=O)C1=O` [Compound 63, N-(3,3′-bipyridin-6-yl)-2-(6-methyl-4,5,7-trioxo-4,5,6,7-tetrahydro-1H-pyrrolo[3,4-b]pyridin-1-yl)acetamide] belongs < 1000 nM; to `O=C(CN1CCCC2=C1C(=O)N(C1CC1)C2=O)Nc1ccc(-c2ccccc2)cc1` [Compound 67, N-([1,1′-biphenyl]-4-yl)-2-(6-cyclopropyl-5,7-dioxo-2,3,4,5,6,7-hexahydro-1H-pyrrolo[3,4-b]pyridin-1-yl)acetamide], < 100 nM.

For `CN1C(=O)C2=C(C1=O)N(CC(=O)Nc1ccc(-c3ccc(F)cc3)cn1)CCC2` [Compound 7, N-(5-(4-fluorophenyl)pyridin-2-yl)-2-(6-methyl-5,7-dioxo-2,3,4,5,6,7-hexahydro-1H-pyrrolo[3,4-b]pyridin-1-yl)acetamide], the IC50 is < 100 nM.

For `Cc1ncccc1-c1ccc(NC(=O)CN2CCCC3=C2C(=O)N(C2CC2)C3=O)cn1` [Compound 121, 2-(6-cyclopropyl-5,7-dioxo-2,3,4,5,6,7-hexahydro-1H-pyrrolo[3,4-b]pyridin-1-yl)-N-(2′-methyl-2,3′-bipyridin-5-yl)acetamide], the IC50 is < 100 nM. With `CN1C(=O)C2=C(C1=O)N(CC(=O)Nc1ncc(-c3ccccc3)cn1)CCC2` [Compound 36, 2-(6-methyl-5,7-dioxo-2,3,4,5,6,7-hexahydro-1H-pyrrolo[3,4-b]pyridin-1-yl)-N-(5-phenylpyrimidin-2-yl)acetamide], the half-inhibitory concentration (IC50) was < 100 nM. Under `O=C(CN1CCCC2=C1C(=O)N(C1CC1)C2=O)Nc1ccc(-c2ccc(F)cn2)cn1` [Compound 127, 2-(6-cyclopropyl-5,7-dioxo-2,3,4,5,6,7-hexahydro-1H-pyrrolo[3,4-b]pyridin-1-yl)-N-(5-fluoro-[2,3′-bipyridin]-6′-yl)acetamide] stands < 100 nM; under `CN1C(=O)C2=C(C1=O)N(CC(=O)Nc1ccc(-c3ncccn3)cc1)CCC2` [Compound 74, 2-(6-methyl-5,7-dioxo-2,3,4,5,6,7-hexahydro-1H-pyrrolo[3,4-b]pyridin-1-yl)-N-(4-(pyrimidin-2-yl)phenyl)acetamide], < 1000 nM. Under `CN1C(=O)C2=C(C1=O)N(CC(=O)Nc1cc(F)c(-c3cccnc3)cn1)CCC2` [Compound 155, N-(4-fluoro-3,3′-bipyridin-6-yl)-2-(6-methyl-5,7-dioxo-2,3,4,5,6,7-hexahydro-1H-pyrrolo[3,4-b]pyridin-1-yl)acetamide] stands < 100 nM. Under `O=C(CN1CCCC2=C1C(=O)N(C1CC1)C2=O)Nc1ccc(-c2ccc(F)nc2)cn1` [Compound 105, 2-(6-cyclopropyl-5,7-dioxo-2,3,4,5,6,7-hexahydro-1H-pyrrolo[3,4-b]pyridin-1-yl)-N-(6′-fluoro-[3,3′-bipyridin]-6-yl)acetamide] stands < 100 nM. On to `Cc1nc(NC(=O)CN2CCCC3=C2C(=O)N(C)C3=O)ccc1-c1cccnc1` [Compound 112], for which the IC50 was < 10000 nM. To `CC(C(=O)Nc1cc(-c2cccc(Cl)c2)no1)N1CCCC2=C1C(=O)N(C)C2=O` (stereo not drawn) [Compound 18, N-(3-(3-chlorophenyl)isoxazol-5-yl)-2-(6-methyl-5,7-dioxo-2,3,4,5,6,7-hexahydro-1H-pyrrolo[3,4-b]pyridin-1-yl)propanamide] belongs < 5000 nM. Under `CN1C(=O)C2=C(C1=O)N(CC(=O)Nc1ccc(-c3ccccc3)nn1)CCC2` [Compound 3, 2-(6-methyl-5,7-dioxo-2,3,4,5,6,7-hexahydro-1H-pyrrolo[3,4-b]pyridin-1-yl)-N-(6-phenylpyridazin-3-yl)acetamide] stands < 100 nM; under `CN1C(=O)C2=C(C1=O)N(CC(=O)Nc1cnc(-c3cncc(F)c3)cn1)CCC2` [Compound 141, N-(5-(5-fluoropyridin-3-yl)pyrazin-2-yl)-2-(6-methyl-5,7-dioxo-2,3,4,5,6,7-hexahydro-1H-pyrrolo[3,4-b]pyridin-1-yl)acetamide], < 100 nM. In the case of `O=C(CN1CCCC2=C1C(=O)N(C1CC1)C2=O)Nc1ccc(-c2cncc(F)c2)cn1` [Compound 106, 2-(6-cyclopropyl-5,7-dioxo-2,3,4,5,6,7-hexahydro-1H-pyrrolo[3,4-b]pyridin-1-yl)-N-(5′-fluoro-[3,3′-bipyridin]-6-yl)acetamide], the IC50 is < 100 nM. On to `O=C(CN1CCCC2=C1C(=O)N(C1CC1)C2=O)Nc1ccc(-c2cncnc2)nc1` [Compound 102, 2-(6-cyclopropyl-5,7-dioxo-2,3,4,5,6,7-hexahydro-1H-pyrrolo[3,4-b]pyridin-1-yl)-N-(6-(pyrimidin-5-yl)pyridin-3-yl)acetamide], for which the IC50 is < 100 nM. To `CN1C(=O)C2=C(C1=O)N(CC(=O)Nc1ccc(-c3cnccn3)cc1)CCC2` [Compound 118, 2-(6-methyl-5,7-dioxo-2,3,4,5,6,7-hexahydro-1H-pyrrolo[3,4-b]pyridin-1-yl)-N-(4-(pyrazin-2-yl)phenyl)acetamide] belongs < 100 nM.
